In PubChem BioAssay (NCI) one finds TGI and GI50 data, which are given here for 31 compounds.

What all share (assay): NCI-60 cell line screen, 48 h
Test [1] has as its system OVCAR-3 ovarian.
The test system of test [2] is KM12 colon.
For test [3], the system named is OVCAR-5 ovarian.
The subject of test [4] is NCI-H460 lung.
Test [5] has as its system RPMI-8226 leukemia.
For test [6], the system named is SF-295 CNS.
The test system of test [7] is SF-539 CNS.
Test [8] has as its system HOP-92 NSCLC.
For test [9], the system named is DU-145 prostate.
The subject of test [10] is HS 578T breast.

Values joined by “and” are separate entries in the source; they are usually repeats but may differ in a detail not shown here. Equal values may be shown once.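 48-hour exposure; five concentrations; linearly interpolated endpoints. GI50 = concentration required for 50% inhibition of growth. TGI: concentration producing complete growth inhibition.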

Turning to `CCOC(=O)[C@H]1CSC[C@@H](C(=O)OC)N1`, the TGI in [1], in [2], in [3], in test [4], in [5] and in [6] was more than 100 µM in each case.
`COC(=O)[C@@]1(O)CC(C)C=C1C=O` (stereo partly specified): the TGI in test [1] is more than 100 µM; in test [2], more than 100 µM; in test [7], more than 100 µM; in test [3], more than 100 µM; in test [4], 42.1 µM; in test [5], more than 100 µM. For the same compound, the TGI in test [8] and in test [6] was more than 100 µM in each case.
For `COc1ccc(-c2nnc(-c3c(C)n(C)n(-c4ccccc4)c3=O)o2)cc1`, the TGI in test [1], in [2], in test [7], in test [4], in [5] and in test [8] was more than 100 µM each time. Besides, the TGI in [6] was more than 100 µM.
`O=[P+](O)c1cc2ccccc2c2ccccc12`: the TGI in test [1], in test [2], in test [7], in [4], in test [5] and in test [6] was more than 100 µM in each case.
`Cc1cc(Oc2cnc(=O)[nH]c2)cs1`: the TGI in [1], in test [2], in test [7], in [3], in [4] and in test [9] was more than 100 µM each time. The TGI in [10], in [5] and in test [6] was more than 100 µM each time.
For the compound `O=C(O)C(C(=O)C(=O)C(C(=O)O)c1ccc(Cl)cc1)c1ccc(Cl)cc1` (stereo unspecified), the TGI in test [1] stood at 10.2 µM; in test [2], 13.4 µM; in [7] it was 4.6 µM; in test [3], 13.6 µM; in test [4] it was 13.7 µM; in test [5], 5.91 µM. Also, the results for the TGI in test [8] and in test [6] were 8.89 µM and 20.8 µM, respectively.
On to `CC(C)N1CCC2(CC1)NNc1ncccc1-n1cccc12`, for which the TGI in [1], in [2], in test [7], in [3], in test [4] and in test [5] was more than 100 µM in each case. In [6], the TGI was more than 100 µM.
`CCC(=O)C(C)C(=O)C(=O)C(=O)OC` (stereo unspecified): the TGI in [1], in test [2], in test [7], in test [3], in test [4] and in [5] was more than 100 µM in each case. In addition, the TGI in [8] and in test [6] was more than 100 µM each time.
For the compound `Cc1ccc(-c2cc(=O)c3cc(C)c(C)c(C(=O)O)c3o2)cc1`, the TGI was more than 100 µM in [1]; more than 100 µM in [2]; 75 µM in [7]; more than 100 µM in [3]; more than 100 µM in test [4]; more than 100 µM in test [5]. Further, the TGI in test [8] and in test [6] was more than 100 µM in each case.
For `CC(C)(c1ccc(Oc2ccc(C#N)c(C#N)c2)cc1)c1ccc(Oc2ccc(C#N)c(C#N)c2)cc1`, the GI50 in [1], in [2], in test [7], in test [3], in test [4] and in test [5] was more than 100 µM in each case. Also, the GI50 in [8] and in [6] was more than 100 µM throughout. Besides, the TGI in [1], in test [2], in test [7], in test [3], in test [4] and in [5] was more than 100 µM in each case. The TGI in [8] and in test [6] was more than 100 µM each time.
In the case of `CN(C(=O)C12C3(C(=O)C(C)(C)C)C4C5(C#N)C3C1(C(=O)C(C)(C)C)C5C42C(=O)C(C)(C)C)C(C)(C)C` (stereo unspecified), the TGI in test [1], in test [2], in [7], in test [3], in test [4] and in test [8] was more than 50 µM each time. This compound also showed a TGI in test [6] of more than 50 µM.
On to `CC(=O)OC(C)(C)/C=C/C(=O)[C@](C)(O)[C@H]1[C@H](O)C[C@@]2(C)[C@@H]3CC=C4[C@@H](C[C@H](O)C(=O)C4(C)C)[C@]3(CO)C(=O)C[C@]12C`, for which the GI50 in test [1] is 0.273 µM; in test [2], 0.703 µM; in test [7] it was 0.173 µM; in [3], 0.73 µM; in test [4], 0.407 µM; in test [5] it was 0.356 µM. In addition, the GI50 in test [8] was 0.282 µM. Further, the TGI in test [1] was 0.762 µM; in test [2], 32.7 µM; in [7], 0.658 µM and 0.472 µM; in test [3], 41 µM; in [4], 17.9 µM; in test [5] it was 2.28 µM. Moreover, the TGI in test [8] is 0.435 µM and 0.454 µM; in test [6], 0.772 µM and 1.64 µM.
As to `O=c1nc(NC(c2ccccc2)(c2ccccc2)c2ccccc2)ccn1CCO`, the TGI in test [1], in test [2], in test [7], in test [3], in [4] and in test [5] was more than 100 µM each time. The TGI in [8] and in test [6] was more than 100 µM throughout.
Turning to `CCO/C=C1\N=C(C(Cl)c2ccccc2)OC1=O` (stereo unspecified), the TGI in test [1], in test [2], in test [7], in test [3], in test [4] and in [5] was more than 100 µM each time. The TGI in test [8] and in test [6] was more than 100 µM each time.
With `CC(C)(O)[C@@H]1CC[C@@]2(C)CCC[C@H](O)[C@H]2C1`, the TGI in [1], in test [2], in test [7], in test [3], in test [4] and in test [5] was more than 100 µM in each case. Also, the TGI in [8] and in test [6] was more than 100 µM in each case.
As for `COc1ccc(OC)c(NCC#N)c1`, the TGI in test [1], in test [2], in test [7], in test [4], in test [5] and in test [8] was more than 100 µM throughout. In test [6], this compound registered a TGI of more than 100 µM.
Consider `COC1=C2C[C@H](O)C(C)C[C@@]2(OC)OC1=O` (stereo partly specified), for which the TGI in test [1], in [2], in [7], in test [4], in test [5] and in [8] was more than 100 µM in each case. The TGI in test [6] was more than 100 µM.
As to `O=C1C2CC=CCC2C(=O)C12CCc1ccccc12` (stereo unspecified), the TGI in test [1], in test [4], in test [8] and in test [6] was more than 100 µM each time.
Consider `Nc1nc(NC2C=C(CO)C(O)C2O)c([N+](=O)[O-])c(=O)[nH]1` (stereo unspecified), for which the TGI in [1], in test [2], in test [7], in test [3], in [4] and in [8] was more than 100 µM each time. This compound yielded a TGI in [6] of more than 100 µM.
Turning to `COc1cc([C@H]2c3cc4c(cc3[C@H](NCc3ccc([N+](=O)[O-])cc3)C3COC(=O)[C@H]32)OCO4)cc(OC)c1O` (stereo partly specified), the TGI was 40 µM in [1]; 11.4 µM in test [2]; 2.95 µM in test [7]; more than 26 µM in test [3]; 2.18 µM in test [4]; more than 25.6 µM in test [5]. The TGI is more than 100 µM in test [8] and 5.14 µM in test [6].
Consider `CCCCCCCCC(O)C#CC(N)=O` (stereo unspecified), for which the TGI is 20.5 µM in test [1]; 26.1 µM in [7]; 43.9 µM in test [3]; 22 µM in [4]; 41.1 µM in test [5]; 24.3 µM in test [8]. Further, the TGI in [6] is more than 100 µM.
On to `NC(=O)C(=Cc1ccc(CP(=O)(O)O)cc1)C(N)=O`, for which the TGI in test [1], in [2], in test [7], in test [3], in test [4] and in [5] was more than 100 µM throughout. The TGI in test [8] and in test [6] was more than 100 µM each time.
As to `CCCCCCCC(=O)OCC1OC(n2cc(F)c(=O)[nH]c2=O)C(NC(=O)OCc2ccccc2)C(O)C1O` (stereo unspecified), the TGI in test [1] is more than 100 µM; in test [2], more than 100 µM; in test [7], more than 100 µM; in [4], more than 100 µM; in test [5], 91.7 µM; in [8] it was 65.2 µM. For the same compound, in test [6], the TGI is more than 100 µM.
Regarding `COc1cc(C=O)c(-c2cc3c(cc2C2(C)OCCS2)OCO3)c(OC)c1OC` (stereo unspecified), the TGI in [1] is 13.6 µM; in [2] it was 34 µM; in test [7], 17.4 µM; in test [3], 129 µM; in test [4], more than 75.6 µM; in test [5], more than 160 µM. The TGI in test [8] was found to be 90.3 µM; in test [6], 48 µM.
Regarding `COC(=O)c1ccc(NC(=O)c2cc(OC)c(OC)c(OC)c2)cc1`, the TGI in test [1] is 7.77 µM; in test [2], more than 100 µM; in [7], 5.5 µM; in test [4], more than 100 µM; in test [8], more than 100 µM; in test [6] it was more than 100 µM.
As for `O=c1cc(-c2ccccc2)nc(/C=C(\O)c2ccncc2)n1-c1ccccc1`, the TGI in [1], in test [2], in test [7], in [3], in test [4] and in [8] was more than 100 µM throughout. The compound further had a TGI in [6] of more than 100 µM.
Take `NC(CC(=O)Nc1ccc(Cl)cc1)=Nc1ccccc1`: the TGI in test [1], in test [2], in [7], in test [3], in test [4] and in test [6] was more than 100 µM throughout.
Turning to `C[C@]1(C(=O)O)N[C@H](C(=O)O)CS1`, the GI50 was 504 µM in [1]; more than 1000 µM in [2]; more than 1000 µM in test [3]; more than 1000 µM in test [4]; more than 1000 µM in test [5]; more than 1000 µM in [8]. Further, the GI50 in test [6] was 933 µM. The TGI in [1], in test [2], in test [3], in [4], in test [5] and in [8] was more than 1000 µM throughout. The TGI in [6] was more than 1000 µM.
`CCCCN=C(NC#N)N(Cc1ccccc1)Cc1ccccc1`: the TGI in test [1] was 64.8 µM; in test [2], more than 100 µM; in [7], 48.2 µM; in test [3], 87.5 µM; in test [4], more than 100 µM; in test [5], 40.8 µM. Moreover, the TGI in [8] turned out to be 45.5 µM; in [6] it was 63.2 µM.
Take `O=c1cc(-c2ccccc2)[nH]c2c(Cl)cccc12`: the TGI was more than 100 µM in [1]; 41.7 µM in test [7]; more than 100 µM in [4]; more than 100 µM in test [5]; 58.5 µM in test [6].
For the compound `Cc1ccc(C(=O)N2c3ccccc3N(C)n3cccc3C2CC(=O)O)cc1` (stereo unspecified), the TGI in test [1], in [2], in test [7], in test [3], in test [4] and in test [5] was more than 100 µM throughout. Moreover, the TGI in test [8] and in test [6] was more than 100 µM each time.
